The values that follow are results of earlier work, collected in PMC7751758, “Repurposing Sigma-1 Receptor Ligands for COVID-19 Therapy?” (Frontiers in Pharmacology, 2020).

For orientation: IC50 means the concentration needed to halve the response being measured. One may read the Ki as a measure of affinity in units of concentration, obtained from inhibition or displacement.

The subject of series [1] is Sigma-1 receptor. The note with it: for IC50: read-out: Sigma-1 receptor affinity IC50; for Ki: read-out: Sigma-1 receptor affinity Ki.
In series [2] the test system is HCV infection. To be noted: without significantly reducing cell biomass; ref Mingorance et al., 2014.
Series [3] relates to HCV infection of human hepatocarcinoma Huh-7 cells. To be noted: absence of cytotoxicity at low micromolar and submicromolar concentrations; ref Gastaminza et al., 2010.
Series [4] concerns HCV-induced cytopathic effect on the engineered cell line n4mBid. To be noted: leads of the cell protection screen; ref Chockalingam et al., 2010.
Series [5] deals with EBOV.
The test system of series [6] is SARS-CoV.
Series [7] deals with MERS-CoV.

“And” between values parts separate entries of the source, which are not always exact repeats. Equal entries are not always repeated. “Also recorded” adds a separate entry of the source. Some results are limits rather than exact numbers.

For `Cc1cc2c(s1)Nc1ccccc1N=C2N1CCN(C)CC1` [olanzapine], the Sig-1R activity entry in series [1] was “no significant Sig-1R activity”.
For the molecule `CNCCC(Oc1ccc(C(F)(F)F)cc1)c1ccccc1` (stereo not drawn) [Fluoxetine], the “reduction of HCV infection” value in series [2] is “more than one order of magnitude”.
Turning to `OCc1cc(C(O)CNCCCCCCOCCCCc2ccccc2)ccc1O` (stereo not drawn) [Salmeterol], the IC50 in series [1] is 151 nM. In addition, in series [3], the “reduction in HCV infection of Huh-7 cells, as compared to the vehicle DMSO control” value (shortened to “reduction in HCV infection”) is over 85%.
On to `Cc1nc2sccn2c(=O)c1CCN1CCC(=C(c2ccc(F)cc2)c2ccc(F)cc2)CC1` [Ritanserin], for which the half-inhibitory concentration (IC50) in series [1] was 190 nM. In addition, in series [4], the “alleviation of HCV-induced cytopathic effect (n4mBid cell viability relative to untreated cells)” value is “increase n4mBid cell viability”.
Consider `CC(=O)c1ccc2c(c1)N(CCCN1CCC(CCO)CC1)c1ccccc1S2` [Piperacetazine], for which, in series [1], the half-maximal inhibitory concentration (IC50) was 823 nM. In addition, the “Antiviral activity: Virus” value in series [5] is reported as “active”.
On to `CNCCCC12CCC(c3ccccc31)c1ccccc12` [Maprotiline], for which the “Antiviral activity: Virus” value in series [5] is reported as “active”.
As for `CC(C)(C)[C@]1(O)CCN2C[C@H]3c4ccccc4CCc4cccc(c43)[C@@H]2C1` [butaclamol], the “alleviation of HCV-induced cytopathic effect (n4mBid cell viability relative to untreated cells)” value in series [4] is listed as “increase n4mBid cell viability”.
Take `CN1CCC(=C2c3ccccc3CC(=O)c3sccc32)CC1` [Ketotifen]: in series [1], the 50% inhibitory concentration (IC50) was 3800 nM. For the same molecule, the “reduction in HCV infection” value in series [3] is on record as over 85%.
For the molecule `CN(C)CCCN1c2ccccc2Sc2ccc(C(F)(F)F)cc21` [Triflupromazine], in series [1], the IC50 is 470 nM and 605 nM; the Ki was 154 nM. In addition, the “Antiviral activity: Virus” value in series [6] was “in vitro activity”. Also, the “Antiviral activity: Virus” value in series [7] is given as “in vitro activity”. The “alleviation of HCV-induced cytopathic effect (n4mBid cell viability relative to untreated cells)” value in series [4] is “increase n4mBid cell viability”.
Take `CN1CCC(=C2c3ccccc3C=Cc3ccccc32)CC1` [Cyproheptadine]: the “reduction in HCV infection” value in series [3] is recorded as over 85%.
In the case of `COc1ccccc1OCCNCC(O)COc1cccc2[nH]c3ccccc3c12` (stereo not drawn) [Carvedilol], the IC50 in series [1] was 1570 nM. Moreover, in series [3], the “reduction in HCV infection” value was over 85%.
As for `Fc1ccc(-n2cc(CCCCN3CCC4(CC3)OCc3ccccc34)c3ccccc32)cc1` [Siramesine], the IC50 in series [1] was 17 nM.
For the molecule `COc1ccc(CCN2CCC(Nc3nc4ccccc4n3Cc3ccc(F)cc3)CC2)cc1` [Astemizole], the “Antiviral activity: Virus” value in series [5] is reported as “active”; in series [6], “in vitro activity”; in series [7], “in vitro activity”.
Regarding `NC(=NCc1ccc(Cl)cc1)SCCCc1cnc[nH]1` [Clobenpropit], the IC50 in series [1] is 1080 nM. Moreover, the “reduction in HCV infection” value in series [3] was over 85%.
On to `CN(CCCN1c2ccccc2CCc2ccccc21)CC(=O)c1ccc(Cl)cc1` [Lofepramine], for which the “Sigma-1 receptor affinity, inhibition” value in series [1] (at 10 µM) is on record as 100% inh. at 10 µM. For the same molecule, in series [1], the Ki was 2520 nM. In addition, in series [3], the “reduction in HCV infection” value is over 85%.
Turning to `Oc1cc2c(cc1O)C(c1ccccc1)CNCC2` (stereo not drawn) [SKF-38393], the “alleviation of HCV-induced cytopathic effect (n4mBid cell viability relative to untreated cells)” value in series [4] was “increase n4mBid cell viability”.
Regarding `CN1CCN(CC/C=C2/c3ccccc3Sc3ccc(S(=O)(=O)N(C)C)cc32)CC1` [Thiothixene], the IC50 in series [1] is 353 nM. Besides, the “Antiviral activity: Virus” value in series [6] and in series [7] was “in vitro activity” each time.
Regarding `CN(C)CCOC(C)(c1ccccc1)c1ccc(Cl)cc1` (stereo not drawn) [Chlorphenoxamine], the IC50 in series [1] was 1760 nM. In addition, the “Antiviral activity: Virus” value in series [6] and in series [7] was “in vitro activity” each time.
`C[C@@H]1C[C@@H]([C@H](O)CC2CC(=O)NC(=O)C2)C(=O)[C@@H](C)C1` [Cycloheximide]: the IC50 in series [1] was 1030 nM. The “Antiviral activity: Virus” value in series [6] and in series [7] was “in vitro activity” each time.
For the molecule `CN1CCCC(n2nc(Cc3ccc(Cl)cc3)c3ccccc3c2=O)CC1` (stereo not drawn) [Azelastine], the half-maximal inhibitory concentration (IC50) in series [1] is 274 nM. In series [3], the “reduction in HCV infection” value is on record as over 85%.
Take `CNC1CC(c2ccc(Cl)c(Cl)c2)c2ccccc21` (stereo not drawn) [Indatraline]: the IC50 in series [1] was 737 nM. In addition, the “reduction in HCV infection” value in series [3] is recorded as over 85%.
In the case of `CC(C)N1CCN(c2ccc(OCC3COC(Cn4cncn4)(c4ccc(Cl)cc4Cl)O3)cc2)CC1` (stereo not drawn) [Terconazole], in series [1], the half-maximal inhibitory concentration (IC50) is 159 nM. Further, the results for the “Antiviral activity: Virus” value in series [5], in series [6] and in series [7] were “active”, “in vitro activity; also recorded: SARS-CoV SARS-CoV-2” and “in vitro activity”, respectively.
`CCN(CC)CCCC(C)Nc1c2ccc(Cl)cc2nc2ccc(OC)cc12` (stereo not drawn) [Quinacrine]: the IC50 in series [1] is 953 nM. Further, the “Antiviral activity: Virus” value in series [5] is “active”.
As for `OCCN1CCN(CCCN2c3ccccc3Sc3ccc(C(F)(F)F)cc32)CC1` [Fluphenazine], the “Antiviral activity: Virus” value in series [5] is “active”; in series [6], “in vitro activity; also recorded: SARS-CoV SARS-CoV-2”; in series [7], “in vitro activity”. Also, the “reduction in HCV infection” value in series [3] is on record as over 85%.
Consider `O=C1NCN(c2ccccc2)C12CCN(CCCC(c1ccc(F)cc1)c1ccc(F)cc1)CC2` [Fluspirilene], for which, in series [1], the half-inhibitory concentration (IC50) was 380 nM and 563 nM; the Ki was 150 nM. Further, the “Antiviral activity: Virus” value in series [6] is “in vitro activity”. The “Antiviral activity: Virus” value in series [7] is listed as “in vitro activity”.
On to `CCN(CC)Cc1cc(Nc2ccnc3cc(Cl)ccc23)ccc1O` [Amodiaquine], for which the IC50 in series [1] was 355 nM. The “Antiviral activity: Virus” value in series [6] and in series [7] was “in vitro activity” throughout.
As for `CN1CCN(c2nc3cc(C(F)(F)F)ccc3n3cccc23)CC1.O=C(O)/C=C\C(=O)O.O=C(O)/C=C\C(=O)O` [CGS 12066B], the IC50 in series [1] was 1180 nM. Further, the “reduction in HCV infection” value in series [3] was over 85%.
As to `O=[N+]([O-])c1ccc2nc(N3CCNCC3)ccc2c1` [Quipazine-6N], the IC50 in series [1] was 1250 nM. Moreover, the “alleviation of HCV-induced cytopathic effect (n4mBid cell viability relative to untreated cells)” value in series [4] was “increase n4mBid cell viability”.
For `CNCCCC1c2ccccc2C=Cc2ccccc21` [Protriptyline], in series [1], the half-inhibitory concentration (IC50) is 307 nM. In series [4], the “alleviation of HCV-induced cytopathic effect (n4mBid cell viability relative to untreated cells)” value is given as “increase n4mBid cell viability”.
`COc1ccc(CN2CCN(C(c3ccc(F)cc3)c3ccc(F)cc3)CC2)c(OC)c1OC` [Lomerizine]: in series [1], the IC50 is 37 nM. Further, the “Antiviral activity: Virus” value in series [5] was “active”.
With `Cl.Cl.OCCN1CCN(CCC=C2c3ccccc3Sc3ccc(C(F)(F)F)cc32)CC1` (mixture of isomers) [Flupentixol], the “Antiviral activity: Virus” value in series [5] is reported as “active”.
`Clc1ccc(C(OCCN2CCCCC2)c2ccccc2)cc1` (stereo not drawn) [Cloperastine]: in series [1], the half-inhibitory concentration (IC50) was 277 nM and the Ki is 20 nM.
As to `CNCCCN1c2ccccc2CCc2ccccc21` [Desipramine], in series [1], the IC50 is 1190 nM and the Ki is 1990 nM. For the same molecule, the “reduction of HCV infection” value in series [2] was “more than one order of magnitude”.
`CC(COc1ccccc1Cc1ccccc1)N1CCCCC1` (stereo not drawn) [Benproperine]: in series [1], the IC50 was 19 nM. Moreover, the “reduction in HCV infection” value in series [3] is given as over 85%.
Regarding `C[C@@H]1CN(CCCn2c3ccccc3c3ccccc32)C[C@H](C)N1` [Rimcazole, 9-[3-(cis-3,5-Dimethyl-1-piperazinyl)-propyl]carbazole], in series [1], the IC50 is […]; the Ki is […]. Besides, the “reduction in HCV infection” value in series [3] was over 85%.
As for `OC(c1cc(C(F)(F)F)nc2c(C(F)(F)F)cccc12)C1CCCCN1` (stereo not drawn) [Mefloquine], in series [1], the half-inhibitory concentration (IC50) is 2560 nM. In addition, the “Antiviral activity: Virus” value in series [6] and in series [7] was “in vitro activity” each time.
Take `OCCOCCN1CCN(C(c2ccccc2)c2ccc(Cl)cc2)CC1` (stereo not drawn) [Hydroxyzine]: in series [1], the IC50 was 342 nM and the Ki is 46 nM. In addition, the “reduction of HCV infection” value in series [2] is on record as “more than one order of magnitude”.
Turning to `CN(C)CCCN1c2ccccc2CCc2ccccc21` [Imipramine], in series [1], the IC50 was 529 nM and the inhibition constant (Ki) was 343 nM. Moreover, the “reduction of HCV infection” value in series [2] is recorded as “more than one order of magnitude”.
Turning to (−)-Butaclamol, the IC50 in series [1] is 183 nM.
Regarding (±)-Butaclamol, the IC50 in series [1] was 343 nM.
As for `CC(=O)[C@H]1CC[C@H]2[C@@H]3CCC4=CC(=O)CC[C@]4(C)[C@H]3CC[C@]12C` [Progesterone], in series [1], the IC50 is 1960 nM; the inhibition constant (Ki) was 173 to 196 nM and 260 to 338 nM.
On to `OC(CCN1CCCCC1)(c1ccccc1)C1CC2C=CC1C2` (stereo not drawn) [biperiden], for which the “alleviation of HCV-induced cytopathic effect (n4mBid cell viability relative to untreated cells)” value in series [4] is on record as “increase n4mBid cell viability”.
Take `CC/C(=C(\c1ccccc1)c1ccc(OCCN(C)C)cc1)c1ccccc1` [Tamoxifen]: the “Antiviral activity: Virus” value is reported as “in vitro activity; also recorded: SARS-CoV SARS-CoV-2” in series [6] and “in vitro activity” in series [7]. For the same molecule, the “reduction of HCV infection” value in series [2] is “more than one order of magnitude”.
In the case of `Clc1ccc2c(c1)CCc1cccnc1C2=C1CCNCC1` [Desloratadine], the “reduction in HCV infection” value in series [3] was over 85%.
Consider `CN(C)CCOc1ccc(/C(=C(/CCCl)c2ccccc2)c2ccccc2)cc1` [Toremifene], for which the IC50 in series [1] is 220 nM. The “Antiviral activity: Virus” value is reported as “active” in series [5], “in vitro activity; also recorded: SARS-CoV SARS-CoV-2” in series [6] and “in vitro activity” in series [7]. In addition, the “reduction in HCV infection” value in series [3] was over 85%.
